Test results taken from US11679107B2 (Eisai R&D Management Co., Ltd., priority 2018, dated 2023).
Where two headings read alike, the source gives them in different places.

Assays:
[1] = system: Panc 05.04 cells (SF3b K700E mutant); assay: Cell proliferation and viability, CellTiter-Glo, 72 hours; assay type: cell-based; conditions: for GI50: geometric mean
How it was run: (§1)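 Cells grown in RPMI-1640 with 10% FBS (Panc 05.04 with added insulin, 15% FBS total) were exposed to an 11-point half-log dilution, typically 10 μM–100 pM, at 0.1% DMSO for 72 h at 37 °C. ATP content was read by CellTiter-Glo luminescence. Percent inhibition was set against a time-zero plate and DMSO vehicle wells, on a −100% (cidal) to 100% (uninhibited growth) scale.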

[2] = system: NCI-H1568 cells (high MCL1); assay: as above; assay type: cell-based; conditions: for GI50: geometric mean
How it was run: as §1

[3] = system: Ad2 variant pre-mRNAs spliced in HeLa S3 nuclear extracts; assay: In vitro splicing assay (IVS), RT-qPCR of spliced product; assay type: biochemical; conditions: for IC50: geometric mean; for Ratio Ad2.1/2.2: ratio of IVS IC50 Ad2.1 to Ad2.2
How it was run: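 Ad2 variant pre-mRNA (2 ng) with FTZΔi control RNA in HeLa S3 nuclear extract (8 μg) was pre-incubated with compound or DMSO for 15 min at 30 °C. Splicing ran 90 min at 30 °C after adding 0.5 mM ATP, creatine phosphate and MgCl2. Spliced product was quantified by TaqMan RT-qPCR, normalized to DMSO, and curve-fitted.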

SF3b complexes = target: T1, SF3b complexes (Homo sapiens, UniProt O75533+Q7RTV0); assay: Scintillation proximity assay (SPA) with [3H]-labelled pladienolide probe; assay type: binding; conditions: SF3B1 (WT); geometric mean; read-out: SPA-ATS GMean IC50 (nM) SF3B1 (WT)
T1 construct: endogenous in cells; host or cells: Nuclear extracts; A HeLa S3 extract preparation is described for the in vitro splicing assay
How it was run: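 SF3b complexes captured from nuclear extracts on anti-SF3B1 antibody SPA beads; test compounds pre-incubated 30 min before 2.5 nM [3H]-pladienolide probe added, then 30 min incubation. Bound probe read by scintillation; values from non-linear regression of concentration–response curves.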

[4] = 72 h, PANC0504.1, -100% = cidal, 0% = static, 100% = uninhibited growth
[5] = Panc 05.04, read-out: CTGlo-ATS GMean GI50 (nM) 72 h PANC0504.1, 72 h, PANC0504.1
[6] = 72 h, NCIH1568.1, -100% = cidal, 0% = static, 100% = uninhibited growth
[7] = NCI-H1568, read-out: CTGlo-ATS GMean GI50 (nM) 72 h NCIH1568.1, 72 h, NCIH1568.1
[8] = Ad2.1 pre-mRNA substrate, read-out: qPCR-IVS-ATS GMean IC50 (nM) Ad2.1
[9] = Ad2.2 pre-mRNA substrate, read-out: qPCR-IVS-ATS GMean IC50 (nM) Ad2.2
[10] = PANC0504.1 cells, 72 h, −100% cidal, 0% static, 100% maximal growth
[11] = Panc 05.04, 72 h, read-out: CTGlo-ATS GMean GI50 (nM) 72 h PANC0504.1, PANC0504.1 cells, 72 h
[12] = NCI-H1568, 72 h, read-out: CTGlo-ATS GMean GI50 (nM) 72 h NCIH1568.1, NCIH1568.1 cells, 72 h
[13] = NCIH1568.1 cells, 72 h, −100% cidal, 0% static, 100% maximal growth
[14] = Panc 05.04, read-out: CTGlo-ATS GMean GI50 (nM) 72 h PANC0504.1, PANC0504.1 cells, 72 h
[15] = NCI-H1568, read-out: CTGlo-ATS GMean GI50 (nM) 72 h NCIH1568.1, NCIH1568.1 cells, 72 h

Row | SMILES | CTGlo-ATS Mean MinResponse % 72 h PANC0504.1 [1, 4] [%] | GI50 [1, 5] [nM] | CTGlo-ATS Mean MinResponse % 72 h NCIH1568.1 [2, 6] [%] | GI50 [2, 7] [nM] | IC50 [3, 8] [nM] | IC50 [3, 9] [nM] | Ratio Ad2.1/2.2 [3] | IC50 (SF3b complexes) [nM] | CTGlo-ATS Mean MinResponse % 72 h PANC0504.1 [1, 10] [%] | GI50 [1, 11] [nM] | GI50 [2, 12] [nM] | CTGlo-ATS Mean MinResponse % 72 h NCIH1568.1 [2, 13] [%] | GI50 [1, 14] [nM] | GI50 [2, 15] [nM] | GI50 ([1]; Panc 05.04, 72 h, read-out: CTGlo-ATS GMean GI50 (nM) 72 h PANC0504.1, 72 h, PANC0504.1) [nM] | GI50 ([2]; NCI-H1568, 72 h, read-out: CTGlo-ATS GMean GI50 (nM) 72 h NCIH1568.1, 72 h, NCIH1568.1) [nM]
1 | CNS(=O)(=O)c1cccc(/C=C(\C)[C@H]2OC(=O)CC(O)CCC(C)[C@@H](OC(=O)N3CCN(C)CC3)/C=C/[C@@H]2C)c1 (stereo in doubt) [Compound 212, [(2S,3S,4E,6R,7R,10S)-10-hydroxy-3,7-dimethyl-2-[(E)-1-[3-(methylsulfamoyl)phenyl]prop-1-en-2-yl]-12-oxo-1-oxacyclododec-4-en-6-yl] 4-methylpiperazine-1-carboxylate] | −59.089 | 60.2 | −49.302 | 129 | > 25000 | 93.8 | 266.536 | 8.79 | – | – | – | – | – | – | – | –
2 | C/C(=C\c1cc(F)cc(N2CCN(CC(=O)c3cnccn3)CC2)c1)[C@H]1OC(=O)C[C@H](O)CC[C@H](C)[C@@H](OC(=O)N2CCN(C)CC2)/C=C/[C@@H]1C [Compound 85] | – | – | – | – | 22 | 27 | – | 4.74 | −90.914 | 8.42 | 14.1 | −80.438 | – | – | – | –
3 | C/C(=C\c1cnn(C)c1)[C@H]1OC(=O)C[C@H](O)CC[C@H](C)[C@@H](OC(=O)N2CCN(C)CC2)/C=C/[C@@H]1C [Compound 103] | – | – | – | – | > 25000 | 4260 | – | 258 | 80.958 | > 10000 | > 10000 | 78.168 | – | – | – | –
4 | C/C(=C\c1cc(F)cc(N2CCC(=O)C2)c1)[C@H]1OC(=O)C[C@H](O)CC[C@H](C)[C@@H](OC(=O)N2CCN(C)CC2)/C=C/[C@@H]1C [Compound 35] | – | – | – | – | 913 | 27.1 | – | 4.78 | −87.702 | – | – | −46.227 | 53.2 | 107 | – | –
5 | C/C(=C\c1cc(F)c2cnn(C3CCOCC3)c2c1)[C@H]1OC(=O)C[C@H](O)CC[C@H](C)[C@@H](OC(=O)N2CCN(C)CC2)/C=C/[C@@H]1C [Compound 116] | – | – | – | – | 25 | 19.2 | – | 4.45 | −76.511 | – | – | −90.483 | 2.2 | 1.55 | – | –
6 | C/C(=C\c1cc(F)c2cn(C3CCOCC3)nc2c1)[C@H]1OC(=O)C[C@H](O)CC[C@H](C)[C@@H](OC(=O)N2CCN(C)CC2)/C=C/[C@@H]1C [Compound 117] | – | – | – | – | > 25000 | 69.6 | – | 9.76 | −95.049 | – | – | −55.709 | 50.2 | 79.8 | – | –
7 | C/C(=C\c1cc(F)cc(N2CCOCC2)c1)[C@H]1OC(=O)C[C@H](O)CC[C@H](C)[C@@H](OC(=O)NCCN(C)C)/C=C/[C@@H]1C [Compound 242, [(2S,3S,4E,6R,7S,10R)-2-[(E)-1-(3-fluoro-5-morpholin-4-ylphenyl)prop-1-en-2-yl]-10-hydroxy-3,7-dimethyl-12-oxo-1-oxacyclododec-4-en-6-yl] N-[2-(dimethylamino)ethyl]carbamate] | −92.786 | 68.9 | −65.744 | 180 | 7150 | 62.1 | 115.051 | 15.3 | – | – | – | – | – | – | – | –
8 | C/C(=C\c1cc(F)cc(N2CCOCC2)c1)[C@H]1OC(=O)C[C@H](O)CC[C@H](C)[C@@H](OC(=O)N2CCC(N(C)C)C2)/C=C/[C@@H]1C (stereo in doubt) [Compound 243, [(2S,3S,4E,6R,7S,10R)-2-[(E)-1-(3-fluoro-5-morpholin-4-ylphenyl)prop-1-en-2-yl]-10-hydroxy-3,7-dimethyl-12-oxo-1-oxacyclododec-4-en-6-yl] (3S)-3-(dimethylamino)pyrrolidine-1-carboxylate] | −92.290 | 10.4 | −71.678 | 10.6 | 98.4 | 38.5 | 2.553 | 3.59 | – | – | – | – | – | – | – | –
9 | C/C(=C\c1cccc(S(=O)(=O)NC(C)C)c1)[C@H]1OC(=O)CC(O)CCC(C)[C@@H](OC(=O)N2CCN(C)CC2)/C=C/[C@@H]1C (stereo in doubt) [Compound 209, [(2S,3S,4E,6R,7R,10S)-10-hydroxy-3,7-dimethyl-12-oxo-2-[(E)-1-[3-(propan-2-ylsulfamoyl)phenyl]prop-1-en-2-yl]-1-oxacyclododec-4-en-6-yl] 4-methylpiperazine-1-carboxylate] | −93.368 | 16.4 | −51.998 | 12.1 | 3130 | 30 | 104.297 | 4.78 | – | – | – | – | – | – | – | –
10 | C/C(=C\c1cccc(COC(=O)N2CCOCC2)c1)[C@H]1OC(=O)C[C@H](O)CC[C@H](C)[C@@H](OC(=O)N2CCN(C)CC2)/C=C/[C@@H]1C [Compound 257, [3-[(E)-2-[(2S,3S,4E,6R,7S,10R)-10-hydroxy-3,7-dimethyl-6-(4-methylpiperazine-1-carbonyl)oxy-12-oxo-1-oxacyclododec-4-en-2-yl]prop-1-enyl]phenyl]methyl morpholine-4-carboxylate] | −75.412 | – | −4.151 | – | > 25000 | 117 | 213.903 | 5.75 | – | – | – | – | – | – | 71.5 | 266
11 | C/C(=C\c1cc(F)cc(N2CCN(C(=O)c3cnco3)CC2)c1)[C@H]1OC(=O)C[C@H](O)CC[C@H](C)[C@@H](OC(=O)N2CCN(C)CC2)/C=C/[C@@H]1C [Compound 123] | – | – | – | – | 16.5 | 13.1 | – | 1.7 | −71.328 | – | – | −86.056 | 2.75 | 2.26 | – | –
12 | C/C(=C\c1cc(F)c2cnn(CC#N)c2c1)[C@H]1OC(=O)C[C@H](O)CC[C@H](C)[C@@H](OC(=O)N2CCN(C)CC2)/C=C/[C@@H]1C [Compound 131] | – | – | – | – | 357 | 45.8 | – | 4.04 | −94.995 | – | – | −65.430 | 27.1 | 19.2 | – | –
